Patent US9074300B2 (priority 2001, dated 2015)

What was measured:
cutinase = cutinase (Fusarium vanettenii, UniProt P00590); assay type: biochemical, Fusarium solani pisi; conditions: read-out: Michaelis constant (KM)
Experimental: The release of PNP was followed using absorbance spectroscopy.
Spectrophotometric measurement was performed at room temperature using BECKMAN DU-640 spectrophotometer (BECKMAN COULTER, INC., Fullerton, Calif.).

GST [1] = target: T1, GST (Rattus norvegicus, UniProt P08010); conditions: corresponds to affinity of 100 μM
Source text: For example, glutathione-S-transferase (GST) is an enzyme which is commonly used as an affinity handle for the purification of recombinant proteins. The target protein is expressed and purified as a GST fusion and may then be treated with a protease to remove the GST domain (Smith and Johnson, 1988).

GST [2] = target: T1, GST; conditions: read-out: affinity of binding to GST; cited from earlier work
GST [3] = target: T2, GST (Schistosoma japonicum, UniProt P08515); conditions: bound complex with GST
GST [4] = target: T2, GST; experiment: SPR immobilization of GST to self-assembled monolayer; assay type: binding; conditions: monolayer from 1:99 mixture of alkanethiol 13 and penta(ethylene glycol) alkanethiol; GST 100 μM, PBS pH 7.4

T2 sequence (P08515 2-218 limits assumed): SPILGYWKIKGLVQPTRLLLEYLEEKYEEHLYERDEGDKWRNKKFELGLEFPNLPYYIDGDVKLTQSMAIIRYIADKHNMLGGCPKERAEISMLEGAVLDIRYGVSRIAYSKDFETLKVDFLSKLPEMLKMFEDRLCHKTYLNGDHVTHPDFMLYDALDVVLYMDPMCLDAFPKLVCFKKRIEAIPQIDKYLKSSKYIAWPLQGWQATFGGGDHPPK
T1 sequence (P08010 2-218 limits assumed): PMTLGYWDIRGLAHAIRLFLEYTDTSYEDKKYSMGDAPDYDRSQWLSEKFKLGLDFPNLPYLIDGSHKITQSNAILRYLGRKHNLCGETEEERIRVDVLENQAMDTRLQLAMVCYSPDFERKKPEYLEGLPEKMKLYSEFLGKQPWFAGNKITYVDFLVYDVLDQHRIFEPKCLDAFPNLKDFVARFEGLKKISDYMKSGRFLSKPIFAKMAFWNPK
Chain of cutinase (P00590 17-230): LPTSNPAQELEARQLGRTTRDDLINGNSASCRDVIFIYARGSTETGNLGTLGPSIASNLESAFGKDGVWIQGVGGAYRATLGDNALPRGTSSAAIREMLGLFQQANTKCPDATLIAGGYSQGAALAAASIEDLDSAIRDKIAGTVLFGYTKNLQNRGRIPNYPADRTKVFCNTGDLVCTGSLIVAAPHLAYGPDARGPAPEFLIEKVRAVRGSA

Molecule: CCCC(=O)Oc1ccc([N+](=O)[O-])cc1 [4-nitrophenyl butyrate]
- Km (cutinase): 1000 µM

Molecule: N[C@@H](CCC(=O)N[C@@H](CS)C(=O)NCC(=O)O)C(=O)O [glutathione]
- lifetime of the bound complex (GST [1]): about one
- Kd (GST [2]): ~100 µM

Molecule: Glutathione-dichtoroquinone conjugate [formula (6)]
- first-order rate constant of irreversible cross-linking reaction (GST [3]): 0.11 ± 0.03 min⁻¹

Molecule: Hydroquinone-glutathione-EG5-alkanethiol [compound 13]
- binding of GST to monolayer (GST [4]): this binding was irreversible
